{"source": "patent US12275685B2", "about": "“Oligo-benzamide analogs and their use in cancer treatment” (Board of Regents, The University of Texas System, priority 2018, dated 2025)", "key": {"[1]": {"target": "T1, LIPA (Homo sapiens, UniProt P38571)", "T1 construct": "expressed in transfected cells; host or cells: SUM-159 cells with LIPA KO, reconstituted with LIPA plasmid constructs", "T1 sequence (P38571 22-399)": "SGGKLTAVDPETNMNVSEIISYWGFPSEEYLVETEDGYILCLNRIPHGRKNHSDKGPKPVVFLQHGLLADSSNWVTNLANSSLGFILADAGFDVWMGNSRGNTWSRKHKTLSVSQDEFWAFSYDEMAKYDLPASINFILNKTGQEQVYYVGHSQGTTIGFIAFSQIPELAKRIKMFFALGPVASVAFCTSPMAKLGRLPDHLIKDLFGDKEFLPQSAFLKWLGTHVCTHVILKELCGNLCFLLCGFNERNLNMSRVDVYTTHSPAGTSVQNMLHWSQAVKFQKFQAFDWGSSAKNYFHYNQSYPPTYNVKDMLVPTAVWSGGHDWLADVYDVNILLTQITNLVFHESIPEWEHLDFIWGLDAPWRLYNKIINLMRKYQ", "assay": "Biotinylated ERX-41 pulldown", "type": "binding", "settings": "WT-LIPA and H274Y MT-LIPA, not DLXXLL or L242P MT-LIPA", "text": "(§1) FIGS. 39A-N: (FIGS. 39A-E) Predicted binding mode of ERX-41 (colored in green) on the human lysosomal acid lipase (LAL, PDB code: 6V7N, LXXLL (SEQ ID NO: 1) domain colored in orange). (FIG. 39F) PDB structure of LAL protein showing relative positions of the catalytic domain (with H274Y MT) and the LXXLL (SEQ ID NO: 1) domain (L242P MT). (FIG. 39G) Evaluation of the effect of ERX-41 and lalistat (known lipase inhibitor) on lipase activity of parental SUM-159 (WT) and SUM-159 cells with LIPA KO. (FIG. 39H) Evaluation of basal lipase activity in parental SUM-159 (WT), SUM-159 cells with LIPA KO (KO), SUM-159 cells with LIPA KO and with reconstitution of either WT LIPA (KO+WT), H274Y MT-LIPA (KO+H274Y), DLXXLL (SEQ ID NO: 2) MT-LIPA (KO+DLXXLL (SEQ ID NO: 2)) or L242P MT-LIPA (KO+L242P). Protein expression of LAL and control vinculin in these cells are shown below (FIG. 391) Cellular lysates from described SUM-159 cells were incubated with biotinylated ERX-11 or biotinylated ERX-41 and then subject to a streptavidin column. Elutants were then evaluated for LIPA pulldown by western blotting. (FIG. 39J) Dose response curve to increasing concentrations of ERX-41 in described SUM-159 cells. (FIGS. 39K-M) Effect of vehicle or 1 μM ERX-41 on induction of UPR genes at the protein level (FIG. 39K) or RNA level (FIGS. 39L-M). […]"}, "[2]": {"assay": "Tolerability of ERX-41 in mice", "type": "in vivo", "settings": "daily oral or intraperitoneal, up to 200 mg/kg", "procedure": "Additionally, ERX-41 was detectable within 1.5 h in established subcutaneous MDA-MB-231 xenograft tumors after oral or intraperitoneal administration (FIG. 35A). […] ERX-41 decreased tumor growth, as shown by extirpated tumor sizes at the end of study (FIG. 35C and FIG. 35E). […] The inventors validated the activity of ERX-41 in four distinct TNBC PDXs established in the mammary fat pad (FIGS. 35I-P)."}, "[3]": {"target": "T2, lipase activity of LIPA (Homo sapiens, UniProt P38571)", "T2 construct": "lipase activity of parental SUM-159 (WT) and SUM-159 cells with LIPA KO; endogenous in cells; host or cells: SUM-159 (parental)", "T2 sequence (P38571 77-399)": "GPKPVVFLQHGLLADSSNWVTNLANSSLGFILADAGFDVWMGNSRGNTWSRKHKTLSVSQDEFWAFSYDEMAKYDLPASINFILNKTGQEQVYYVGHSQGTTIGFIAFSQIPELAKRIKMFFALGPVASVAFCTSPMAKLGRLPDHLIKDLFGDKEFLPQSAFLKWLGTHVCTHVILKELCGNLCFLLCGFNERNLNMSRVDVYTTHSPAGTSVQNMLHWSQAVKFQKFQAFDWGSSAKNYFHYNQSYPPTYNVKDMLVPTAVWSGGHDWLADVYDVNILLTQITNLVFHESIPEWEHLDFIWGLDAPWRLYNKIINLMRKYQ", "assay": "Lipase activity assay", "type": "biochemical", "settings": "SUM-159 cells", "text": "as §1"}, "[4]": {"test_system": "22 human preclinical TNBC cell line models", "assay": "WST assay in TNBC cell lines", "type": "cell-based", "settings": "22 TNBC cell lines, read-out: IC50, WST assays", "text": "(§2) FIGS. 34A-C: Dose response curve of ERX-41 in multiple TNBC. cell lines using WST-1 assays (FIG. 34A) and CellTiter-Glo assays (FIG. 34B). […] Quantification of the number of dead cells over time seen with live cell imaging in MDAMB-231 and HMEC cells is shown.\n(§3) To evaluate the generalizability of the inventors' findings, they evaluated ERX-41 in a large number of TNBC and ERa-positive cell lines."}, "[5]": {"test_system": "nuclear receptor (NR) interaction with its coregulator proteins", "assay": "Inhibition of nuclear receptor-coregulator interaction in cancer cells", "type": "cell-based", "procedure": "The present oligo-benzamide analogs are extremely potent and effective on various cancer cells including breast cancer, ovarian cancer, and pancreatic cancer. These compounds have a unique mode of action compared to existing therapeutic treatments to these diseases. The compounds are very potent with IC50 values of 10-50 nM for growth inhibition. TK41 is a tris-benzamide analog and it inhibits nuclear receptor (NR) interaction with its coregulator proteins in cancer cells with high potency (IC50 is approximately 100 nM; FIGS. 1-4)."}, "[6]": {"test_system": "TNBC cells", "assay": "Live cell imaging with SYTOX Green, TNBC", "type": "cell-based", "settings": "within 30 hours of treatment", "text": "as §2, §3"}}, "data": [{"smiles": "CC(C)COc1cc(C(=O)Nc2ccc(C(=O)N[C@H]3CC[C@H](C)CC3)cc2OCC(C)C)ccc1NC(=O)c1ccc([N+](=O)[O-])c(OCCO)c1", "note": "[TK41]", "values": [{"measurement": "interaction with LIPA", "setting": "[1]", "result": "direct interaction"}, {"measurement": "tolerability", "setting": "[2]", "result": "well tolerated"}, {"measurement": "effect on lipase activity of LIPA", "setting": "[3]", "result": "no inhibition of lipase activity"}, {"measurement": "IC50", "setting": "[4]", "result": "< 500", "unit": "nM"}, {"measurement": "IC50", "setting": "[5]", "result": "~100", "unit": "nM"}, {"measurement": "cell death, share of cells", "setting": "[6]", "result": "> 90", "unit": "%"}]}]}
